Paper PMC10734772 (Turkish Journal of Chemistry, 2021)

Tests used:
Type in all cases: cell-based
[1] = test system: K562, Nalm-6, Molt-4, Reh, Jurkat, Hek293T cell lines; assay: MTT assay, overall judgement over all cell lines; conditions: overall judgement in words; for 6 and 10: on all cell lines, except Reh
Protocol: (§1) To evaluate in-vitro anti-cancer activity of the newly synthesized compounds, they were tested by using the MTT assay in the BCR-ABL positive leukemic cell line (K562), BCR-ABL negative leukemic cell lines (Nalm-6, Molt-4, Reh and Jurkat), and non-leukemic human embryonic kidney tissue (Hek293T) cell line. […] The viability rate of each concentration was calculated by the formula stated in material and methods, the viability rate results for each cell were presented in Table S2 and Figure S44.

Molt-4 = assay: MTT assay, Molt-4 cells; conditions: Homo sapiens, MOLT-4, 24 h, read-out: Viability rate
Protocol: (§2) K562, Jurkat, Molt-4, and Nalm-6 cell lines were cultured in RPMI-1640 medium (ECM2001, Euroclone), Reh cell line was cultured in DMEM medium (LM-D1111-Biosera) Hek293T cell line was cultured in IMDM medium (AL070A - HiMedia) supplemented with 10% heat-inactivated fetal bovine serum (F7524-Merck & Co., USA,) penicillin and streptomycin (P4333-Sigma Aldrich). K562, Jurkat and Molt-4 cell lines were seeded as 4x10^5/ml, Reh and Nalm-6 cell lines were seeded 5x10^5/ml, Hek293T cell line was seed as 2x10^5/ml. All cells were incubated at 5% CO2 and 37 °C. All cell lines were kindly provided by Dr. M. Sayitoglu and Dr. Ö. Hatirnaz-Ng from Acibadem University.
(§3) MTT assay is a 3-day test. On the first day, cell count was performed in Bio Rad TC-20 device with the help of trypan blue, each cell line was prepared by diluting to the specified concentrations and seeded in a 96-well plate as 100μL to each well and incubated for 1 day.
(§4) Each compound was solved in DMSO, their stock solutions (33.3, 10, 5, 1 mM, and 300 μM) were prepared by diluting with the same solvent and they were stored under −20°C when they were not used.
(§5) On the second day, stock solutions were subsequently diluted to various concentrations (0.3–200 μM) with related medium prior to experiments. Specified concentrations of the compounds were seeded in a 96-well plate as 100μL to each well and incubated for 24 h.
(§6) After incubation (on the third day), to precipitate leukemia cells, the cell plate was centrifuged at 1500 rpm for 5 min. Then, 100 μL of supernatant was removed from each well carefully and 10 μl of MTT solution (5 mg/mL) was added to each well and incubated at 37 °C for 4 h. The 50 μl of supernatant was discarded from each well and 100 μl of DMSO was added to dissolve the formazan. Plates were shaken for 45 min to dissolve the dye. Then the optical density of each well was measured by using Thermo VarioSkan Flush Multimode Reader Quantum ST5-1100 at 570 nm wavelength.
(§7) Subsequently, viability rate of the cells at each concentration, as percentage, was determined by following formula (1):
(§8) Viability rate (%)=100-[(OD(control)-OD(sample))/OD(control)×100].OD=Optical Density
(§9) The IC50 values were calculated by using GraphPad Prism. All the data presented as the mean of 6 replicates. Results were analyzed and illustrated with Graph Pad Prism (version 5; GraphPad Software, San Diego, CA, USA). Statistical analysis was performed using dose-response inhibition, log(inhibitor) vs response-variable slope, least squares (ordinary) fit.
as §1

[2] = MTT assay, Hek293T non-leukemic control cells; conditions: human, read-out: Viability rate
Protocol: as §2, §3, §4, §5, §6, §7, §8, §9, §1

K562 = assay: MTT assay, K562 cells; conditions: Homo sapiens, 24 h, MTT, read-out: Viability rate
Protocol: After incubation (on the third day), to precipitate leukemia cells, the cell plate was centrifuged at 1500 rpm for 5 min. […] The 50 μl of supernatant was discarded from each well and 100 μl of DMSO was added to dissolve the formazan. Plates were shaken for 45 min to dissolve the dye. Then the optical density of each well was measured by using Thermo VarioSkan Flush Multimode Reader Quantum ST5-1100 at 570 nm wavelength.
The IC50 values were calculated by using GraphPad Prism. All the data presented as the mean of 6 replicates. […] Statistical analysis was performed using dose-response inhibition, log(inhibitor) vs response-variable slope, least squares (ordinary) fit.

Jurkat = assay: MTT assay, Jurkat cells; conditions: Homo sapiens, 24 h, read-out: Viability rate
Protocol: as §2, §3, §4, §5, §6, §7, §8, §9, §1

Reh = assay: MTT assay, Reh cells; conditions: Homo sapiens, 24 h, read-out: Viability rate
Protocol: as §2, §3, §4, §5, §6, §7, §8, §9, §1

Nalm-6 = assay: MTT assay, Nalm-6 cells; conditions: Homo sapiens, 24 h

## Cc1ccnc(Nc2cc(NC(=O)c3ccc(CN4CCOCC4)cc3)ccc2C)c1 [Compound 9, N-(4-Methyl-3-((4-methylpyridin-2-yl)amino)phenyl)-4-(morhpolinomethyl)benzamide]
[1]
  anticancer activity according to MTT assay results: relatively lower activity
Molt-4; Molt-4, 0.3 μM
  viability at 0.3 µM: 93.2 ± 0.17%
Molt-4; Molt-4, 0.5 μM
  viability at 0.5 µM: 87.8 ± 0.05%
Molt-4; Molt-4, 1 μM
  viability at 1 µM: 78.4 ± 0.11%
Molt-4; Molt-4, 3 μM
  viability at 3 µM: 72.7 ± 0.04%
Molt-4; Molt-4, 5 μM
  viability at 5 µM: 71.7 ± 0.07%
Molt-4; Molt-4, 10 μM
  viability at 10 µM: 69.3 ± 0.04%
Molt-4; Molt-4, 15 μM
  viability at 15 µM: 68.9 ± 0.05%
Molt-4; Molt-4, 20 μM
  viability at 20 µM: 63.5 ± 0.04%
Molt-4; Molt-4, 30 μM
  viability at 30 µM: 62 ± 0.03%
Molt-4; Molt-4, 50 μM
  viability at 50 µM: 61.5 ± 0.07%
Molt-4; Molt-4, 70 μM
  viability at 70 µM: 59.8 ± 0.05%
Molt-4; Molt-4, 100 μM
  viability at 100 µM: 59.5 ± 0.08%
Molt-4; Molt-4, 150 μM
  viability at 150 µM: 58.6 ± 0.06%
Molt-4; Molt-4, 200 μM
  viability at 200 µM: 54.7 ± 0.03%
[2]; Hek293T cells (non-leukemic control cell line), 0.3 μM
  viability at 24 h, 0.3 µM: 91.7 ± 0.07%
[2]; Hek293T cells (non-leukemic control cell line), 0.5 μM
  viability at 24 h, 0.5 µM: 89.8 ± 0.07%
[2]; Hek293T cells (non-leukemic control cell line), 3 μM
  viability at 24 h, 3 µM: 87.4 ± 0.07%
[2]; Hek293T cells (non-leukemic control cell line), 5 μM
  viability at 24 h, 5 µM: 86.2 ± 0.03%
[2]; Hek293T cells (non-leukemic control cell line), 10 μM
  viability at 24 h, 10 µM: 79.3 ± 0.05%
[2]; Hek293T cells (non-leukemic control cell line), 15 μM
  viability at 24 h, 15 µM: 78.3 ± 0.03%
[2]; Hek293T cells (non-leukemic control cell line), 20 μM
  viability at 24 h, 20 µM: 76.5 ± 0.05%
[2]; Hek293T cells (non-leukemic control cell line), 30 μM
  viability at 24 h, 30 µM: 68.9 ± 0.03%
[2]; Hek293T cells (non-leukemic control cell line), 50 μM
  viability at 24 h, 50 µM: 62.2 ± 0.02%
[2]; Hek293T cells (non-leukemic control cell line), 70 μM
  viability at 24 h, 70 µM: 56.2 ± 0.04%
[2]; Hek293T cells (non-leukemic control cell line), 100 μM
  viability at 24 h, 100 µM: 54.8 ± 0.02%
[2]; Hek293T cells (non-leukemic control cell line), 150 μM
  viability at 24 h, 150 µM: 46.9 ± 0.02%
[2]; Hek293T cells (non-leukemic control cell line), 200 μM
  viability at 24 h, 200 µM: 42.8 ± 0.02%
[2]; Hek293T cells, 1 μM
  viability at 24 h, 1 µM: 89.5 ± 0.05%
K562; K562, 0.3 μM
  viability at 0.3 µM: 79.9 ± 0.09%
K562; K562, 0.5 μM
  viability at 0.5 µM: 78.5 ± 0.03%
K562; K562, 1 μM
  viability at 1 µM: 77.3 ± 0.08%
K562; K562, 3 μM
  viability at 3 µM: 77 ± 0.04%
K562; K562, 5 μM
  viability at 5 µM: 75.4 ± 0.09%
K562; K562, 10 μM
  viability at 10 µM: 73.2 ± 0.08%
K562; K562, 15 μM
  viability at 15 µM: 72 ± 0.06%
K562; K562, 20 μM
  viability at 20 µM: 69.1 ± 0.03%
K562; K562, 30 μM
  viability at 30 µM: 69.7 ± 0.07%
K562; K562, 50 μM
  viability at 50 µM: 61.2 ± 0.08%
K562; K562, 70 μM
  viability at 70 µM: 58.1 ± 0.1%
K562; K562, 100 μM
  viability at 100 µM: 51.3 ± 0.06%
K562; K562, 150 μM
  viability at 150 µM: 49.7 ± 0.05%
K562; K562, 200 μM
  viability at 200 µM: 45%
Jurkat; 0.3 μM
  viability at 0.3 µM: 82.3 ± 0.05%
Jurkat; 0.5 μM
  viability at 0.5 µM: 82 ± 0.06%
Jurkat; 1 μM
  viability at 1 µM: 82 ± 0.05%
Jurkat; 3 μM
  viability at 3 µM: 81.7 ± 0.05%
Jurkat; 5 μM
  viability at 5 µM: 83 ± 0.04%
Jurkat; 10 μM
  viability at 10 µM: 81.9 ± 0.02%
Jurkat; 15 μM
  viability at 15 µM: 80.4 ± 0.02%
Jurkat; 20 μM
  viability at 20 µM: 79 ± 0.04%
Jurkat; 30 μM
  viability at 30 µM: 72.9 ± 0.07%
Jurkat; 50 μM
  viability at 50 µM: 68.1 ± 0.01%
Jurkat; 70 μM
  viability at 70 µM: 65.1 ± 0.02%
Jurkat; 100 μM
  viability at 100 µM: 49.6 ± 0.07%
Jurkat; 150 μM
  viability at 150 µM: 46.9 ± 0.05%
Jurkat; 200 μM
  viability at 200 µM: 39.1 ± 0.04%
Reh; 0.3 μM
  viability at 0.3 µM: 103.8 ± 0.01%
Reh; 0.5 μM
  viability at 0.5 µM: 101.3 ± 0.03%
Reh; 1 μM
  viability at 1 µM: 100.4 ± 0.01%
Reh; 3 μM
  viability at 3 µM: 100.5 ± 0.02%
Reh; 5 μM
  viability at 5 µM: 101.8 ± 0.03%
Reh; 10 μM
  viability at 10 µM: 103.4 ± 0.02%
Reh; 15 μM
  viability at 15 µM: 100.2 ± 0.02%
Reh; 20 μM
  viability at 20 µM: 99 ± 0.02%
Reh; 30 μM
  viability at 30 µM: 91.4 ± 0.01%
Reh; 50 μM
  viability at 50 µM: 88.2 ± 0.02%
Reh; 70 μM
  viability at 70 µM: 84.7 ± 0.03%
Reh; 100 μM
  viability at 100 µM: 87.1 ± 0.02%
Reh; 150 μM
  viability at 150 µM: 85 ± 0.01%
Reh; 200 μM
  viability at 200 µM: 82 ± 0.02%
Nalm-6; Nalm-6, 0.3 μM, MTT, read-out: Viability rate
  viability at 0.3 µM: 86.4 ± 0.05%
Nalm-6; Nalm-6, 0.5 μM, MTT, read-out: Viability rate
  viability at 0.5 µM: 85.2 ± 0.05%
Nalm-6; Nalm-6, 1 μM, MTT, read-out: Viability rate
  viability at 1 µM: 72.7 ± 0.04%
Nalm-6; Nalm-6, 3 μM, MTT, read-out: Viability rate
  viability at 3 µM: 64.5 ± 0.02%
Nalm-6; Nalm-6, 5 μM, MTT, read-out: Viability rate
  viability at 5 µM: 62.6 ± 0.04%
Nalm-6; Nalm-6, 10 μM, MTT, read-out: Viability rate
  viability at 10 µM: 53.2 ± 0.03%
Nalm-6; Nalm-6, 15 μM, MTT, read-out: Viability rate
  viability at 15 µM: 50.1 ± 0.03%
Nalm-6; Nalm-6, 20 μM, MTT, read-out: Viability rate
  viability at 20 µM: 49.2 ± 0.01%
Nalm-6; Nalm-6, 30 μM, MTT, read-out: Viability rate
  viability at 30 µM: 48.1 ± 0.01%
Nalm-6; Nalm-6, 50 μM, MTT, read-out: Viability rate
  viability at 50 µM: 43.9 ± 0.01%
Nalm-6; Nalm-6, 70 μM, MTT, read-out: Viability rate
  viability at 70 µM: 42.8 ± 0.01%
Nalm-6; Nalm-6, 100 μM, MTT, read-out: Viability rate
  viability at 100 µM: 42.5 ± 0.01%
Nalm-6; Nalm-6, 150 μM, MTT, read-out: Viability rate
  viability at 150 µM: 42.5 ± 0.01%
Nalm-6; Nalm-6, 200 μM, MTT, read-out: Viability rate
  viability at 200 µM: 39.2%
Nalm-6; Nalm-6, MTT, range 0.3–200 μM, six replicates
  IC50: 1640 nM
